Data published in patent US20140271756A1, “Controlled Release of Microbiocides” (priority 2013, published 2014).

Experiment: benzyltriazole release flux rate test of membrane in 20 gallons tap water
Format: physicochemical
Conditions: 80° F., 100 hour period
Protocol: The microbiocide component release flux rate through the membrane is defined as milligrams of microbiocide component released per hour through one square millimeter of membrane or mg./hr./mm^2. Because the release flux rate varies over a wide range and is at least sometimes relatively slow, a test using benzyltriazole has been developed to quantify certain release flux rates that may be useful in accordance with the present invention. This test is conducted as follows.
A tank with twenty (20) gallons of tap water is provided, together with a recirculating heater to give mixing and temperature control. […] Water samples are collected at regular intervals over a 100 hour period and are measured for benzyltriazole content. From these measurements, the benzyltriazole release flux rate of the membrane is determined. To illustrate, suppose 300 mg of benzyltriazole is released through 351 mm^2 of membrane area (exposed through an opening in the outermost wall of the container) in 100 hours. The benzyltriazole release flux rate

With benzyltriazole the “benzyltriazole release flux rate” value (membrane 27 of container 10, cellulose nitrate, average pore size about 20 to about 25 microns) was “about 0.049 mg/hr/min^2” and the “benzyltriazole release flux rate” value (membrane layers 127 of container 110, cellulose nitrate, pore size about 8 microns) was “about 0.025 mg/hr./mm^2”.
